Results on ten compounds are retold here after EP0519427A2, “N-substituted-3-iodopropiolamide, production and use thereof” (priority 1991, dated 1992).

Test in all cases: Antibacterial and antifungal activity, paper disc method
What all share (type): cell-based

The test system of test [1] is Aspergillus niger IFO-4407. The note with it: IFO4407, paper disc d=8 mm dipped in 1,000 µg/ml solution, SDA medium, read-out: diameter of the growth inhibition circle, Asp.(IFO-4407). The protocol:
(§1) Antibacterial and antifungal activity tests for various bacteria and fungi were conducted. The tests were carried out by the conventional paper disc method. That is, a paper disc (d=8 mm) was dipped in aqueous or methanol solution of the compound of the present invention (concentration : 1,000 µg/ml), then dried and used.
(§2) As bacteria to be tested, • ① Staphylococcus aureus IFO-12732 [hereinafter abbreviated to Sta.] • ② Bacillus subtilis IFO-13719 [Bac.] • ③ Escherichia coli IFO-3301 [Esc.] were used. As yeast to be tested, • ④ Saccharomyces cerevisiae IFO-0210 [Sac.] • ⑤ Candida albicans IFO-0583 [Can.] were used. As fungi to be tested, • ⑥ Aspergillus niger IFO-4407 [Asp.] • ⑦ Penicillium citrinum IFO-7784 [Pen.] • ⑧ Tyromyces palustris IFO-30339 [Tyr.] • ⑨ Coriolus versicolor IFO-30340 [Cor.] were used. Among the above fungi, Tyr. and Cor. are wood rot fungi.
(§3) As the test media, agar media shown below were used. That is, TSA (Trypticase Soy Agar) medium was used for Sta., Bac. and Esc.; YNB (Yeast Nitrogen Base) agar medium was used for Sac. and Can.; SDA (Sabouraud Dextrose Agar) medium was used for Asp. and Pen.; and PDA (Potato Dextrose Agar) medium was used for Try. and Cor.
(§4) The determination of antibacterial and antifungal effectiveness was carried out by measuring the diameter of the growth inhibition circle generated on the circumference of the paper disc. The indication of effectiveness is given as follows: -: no growth inhibition circle was observed. +: diameter of the growth inhibition circle was 9 - 20 mm ++: diameter of the growth inhibition circle was 21 - 40 mm +++: diameter of the growth inhibition circle was 41 mm or more

The subject of test [2] is Bacillus subtilis IFO-13719. Conditions: paper disc d=8 mm dipped in 1,000 µg/ml solution, TSA medium; for zone of inhibition at 1000 µg/mL: Bacillus subtilis, IFO13719, read-out: diameter of the growth inhibition circle, Bac.(IFO-13719). The method, then:
as §1, §2, §3, §4

Test [3] has as its system Candida albicans IFO-0583. Conditions: IFO0583, paper disc d=8 mm dipped in 1,000 µg/ml solution, YNB agar medium, read-out: diameter of the growth inhibition circle, Can.(IFO-0583). The method, then: as §1, §2, §3, §4
For test [4], the system named is Coriolus versicolor IFO-30340. Conditions: Trametes versicolor, IFO30340; paper disc d=8 mm dipped in 1,000 µg/ml solution; PDA medium; read-out: diameter of the growth inhibition circle, Cor.(IFO-30340). The method, then: as §1, §2, §3, §4
For test [5], the system named is Escherichia coli IFO-3301. Conditions: paper disc d=8 mm dipped in 1,000 µg/ml solution, TSA medium; for zone of inhibition at 1000 µg/mL: Escherichia coli, IFO3301, read-out: diameter of the growth inhibition circle, Esc.(IFO-3301). The protocol: as §1, §2, §3, §4
Test [6] relates to Penicillium citrinum IFO-7784. The note with it: IFO7784, paper disc d=8 mm dipped in 1,000 µg/ml solution, SDA medium, read-out: diameter of the growth inhibition circle, Pen.(IFO-7784). The protocol: as §1, §2, §3, §4
The subject of test [7] is Saccharomyces cerevisiae IFO-0210. The note with it: IFO0210, paper disc d=8 mm dipped in 1,000 µg/ml solution, YNB agar medium, read-out: diameter of the growth inhibition circle, Sac.(IFO-0210). The method, then: as §1, §2, §3, §4
Test [8] relates to Staphylococcus aureus IFO-12732. Conditions: IFO12732, paper disc d=8 mm dipped in 1,000 µg/ml solution, TSA medium, read-out: diameter of the growth inhibition circle, Sta.(IFO-12732). The protocol:
as §1, §2, §3, §4

In test [9] the test system is Tyromyces palustris IFO-30339. Conditions: paper disc d=8 mm dipped in 1,000 µg/ml solution; PDA medium; read-out: diameter of the growth inhibition circle, Tyr.(IFO-30339). The method, then: as §1, §2, §3, §4

Where only a bound is given, the exact number is not on record here.

Consider `CCCCCCCCCCNC(=O)C#CI` [Example 2, N-(n-Decyl)-3-iodopropiolamide], for which the zone of inhibition at 1000 µg/mL lay within 9 to 20 mm in test [1]; 9 to 20 mm in test [2]; 9 to 20 mm in [3]; 21 to 40 mm in test [4]; 9 to 20 mm in test [6]; 9 to 20 mm in test [7]. The zone of inhibition at 1000 µg/mL in [8] and in test [9] was 9 to 20 mm in each case. Also, the “diameter of the growth inhibition circle, Esc.(IFO-3301)” value in [5] is reported as “-”.
On to `CCCCCNC(=O)C#CI` [Example 7, N-(n-Pentyl)-3-iodopropiolamide], for which the zone of inhibition at 1000 µg/mL in test [1] is 21 to 40 mm; in test [2] it was 9 to 20 mm; in [3], 21 to 40 mm; in [4], more than 41 mm; in test [5], 9 to 20 mm; in test [6], more than 41 mm. In addition, the zone of inhibition at 1000 µg/mL in test [7] is 21 to 40 mm; in test [8], 21 to 40 mm; in test [9], more than 41 mm.
In the case of `CCC(C)NC(=O)C#CI` (stereo not drawn) [Example 5, N-(sec-Butyl)-3-iodopropiolamide], the zone of inhibition at 1000 µg/mL was 21 to 40 mm in [1]; 9 to 20 mm in [2]; 21 to 40 mm in test [3]; more than 41 mm in test [4]; 9 to 20 mm in test [5]; more than 41 mm in test [6]. Moreover, the zone of inhibition at 1000 µg/mL in test [7] is 21 to 40 mm; in test [8], 21 to 40 mm; in test [9] it was more than 41 mm.
Turning to `CCCCCCCNC(=O)C#CI` [Example 9, N-(n-Heptyl)-3-iodopropiolamide], the zone of inhibition at 1000 µg/mL in test [1] is 21 to 40 mm; in test [2], 9 to 20 mm; in test [3], 21 to 40 mm; in test [4], more than 41 mm; in test [6], more than 41 mm; in test [7], 21 to 40 mm. Further, the zone of inhibition at 1000 µg/mL in [8] is 9 to 20 mm; in test [9], more than 41 mm. In addition, the “diameter of the growth inhibition circle, Esc.(IFO-3301)” value in test [5] is “-”.
For the compound `CC(C)(C)NC(=O)C#CI` [Example 1, N-(tert-Butyl)-3-iodopropiolamide], the zone of inhibition at 1000 µg/mL in [1] is 21 to 40 mm; in test [2], 9 to 20 mm; in test [3] it was 21 to 40 mm; in [4], more than 41 mm; in [5], 9 to 20 mm; in test [6] it was more than 41 mm. Further, the zone of inhibition at 1000 µg/mL is 21 to 40 mm in test [7], 9 to 20 mm in [8] and more than 41 mm in [9].
On to `CCCCNC(=O)C#CI` [Example 4, N-(n-Butyl)-3-iodopropiolamide], for which the zone of inhibition at 1000 µg/mL was 21 to 40 mm in [1]; 9 to 20 mm in test [2]; 21 to 40 mm in test [3]; more than 41 mm in test [4]; 9 to 20 mm in test [5]; more than 41 mm in test [6]. Moreover, the zone of inhibition at 1000 µg/mL in test [7] was 21 to 40 mm; in test [8], 21 to 40 mm; in test [9] it was more than 41 mm.
For the compound `CC(C)CNC(=O)C#CI` [Example 6, N-Isobutyl-3-iodopropiolamide], the zone of inhibition at 1000 µg/mL in [1], in test [2], in [3], in test [4], in test [6] and in [7] was 21 to 40 mm throughout. Also, the figures for the zone of inhibition at 1000 µg/mL in test [8] and in test [9] were 21 to 40 mm and more than 41 mm, respectively. Besides, the “diameter of the growth inhibition circle, Esc.(IFO-3301)” value in [5] is reported as “-”.
Regarding `CCCCCCCCCNC(=O)C#CI` [Example 11, N-(n-Nonyl)-3-iodopropiolamide], the zone of inhibition at 1000 µg/mL in test [1] is 9 to 20 mm; in [3] it was 9 to 20 mm; in test [4] it was more than 41 mm; in test [6], 21 to 40 mm; in test [7], 9 to 20 mm; in test [8], 9 to 20 mm. In addition, the zone of inhibition at 1000 µg/mL in test [9] was 21 to 40 mm. In addition, the “diameter of the growth inhibition circle, Bac.(IFO-13719)” value in test [2] is given as “-”. Moreover, the “diameter of the growth inhibition circle, Esc.(IFO-3301)” value in test [5] is “-”.
For the compound `CCCCCCCCNC(=O)C#CI` [Example 10, N-(n-Octyl)-3-iodopropiolamide], the zone of inhibition at 1000 µg/mL was 9 to 20 mm in [1]; 21 to 40 mm in test [3]; more than 41 mm in [4]; 21 to 40 mm in test [6]; 21 to 40 mm in test [7]; 9 to 20 mm in test [8]. Further, in test [9], the zone of inhibition at 1000 µg/mL lay in the range of 21 to 40 mm. Besides, the “diameter of the growth inhibition circle, Bac.(IFO-13719)” value in [2] was “-”. In test [5], the “diameter of the growth inhibition circle, Esc.(IFO-3301)” value is recorded as “-”.
As to `CCCCCCNC(=O)C#CI` [Example 8, N-(n-Hexyl)-3-iodopropiolamide], the zone of inhibition at 1000 µg/mL was 21 to 40 mm in [1]; 9 to 20 mm in test [2]; 21 to 40 mm in [3]; more than 41 mm in test [4]; 9 to 20 mm in [5]; more than 41 mm in test [6]. Also, the zone of inhibition at 1000 µg/mL is 21 to 40 mm in [7], 21 to 40 mm in test [8] and more than 41 mm in test [9].
